Test results reported in PMC11103274 (Journal of the American Chemical Society, 2023).
Where two headings read alike, the source gives them in different places.

Experiments:
[1] = molecular target: T1, human serine racemase (hSR) (Homo sapiens, UniProt Q9GZT4); settings: cited from earlier work
T1 sequence (Q9GZT4 1-340): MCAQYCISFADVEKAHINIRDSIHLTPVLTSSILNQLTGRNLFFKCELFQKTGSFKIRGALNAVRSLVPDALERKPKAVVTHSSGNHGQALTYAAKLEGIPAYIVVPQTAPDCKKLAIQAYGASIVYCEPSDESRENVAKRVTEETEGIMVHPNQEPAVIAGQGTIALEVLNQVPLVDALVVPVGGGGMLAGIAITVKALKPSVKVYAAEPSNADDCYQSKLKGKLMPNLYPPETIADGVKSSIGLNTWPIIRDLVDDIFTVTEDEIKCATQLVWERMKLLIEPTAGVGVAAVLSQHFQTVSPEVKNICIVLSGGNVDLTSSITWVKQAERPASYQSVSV

[2] = molecular target: T1, human serine racemase (hSR); experiment: 13C/2H-isotopic crosstalk NMR dual function assay; settings: for IC50: 13C/2H crosstalk NMR assay
[3] = molecular target: T1, human serine racemase (hSR); experiment: steady state kinetic analysis, coupled UV-vis assay for β-elimination; format: biochemical
[4] = solubility under assay conditions; format: physicochemical
[5] = molecular target: T2, human serine racemase (hSR), allosteric ATP site (Homo sapiens, UniProt Q9GZT4); experiment: steady state competition against ATP, L-Ser held constant at 30 mM; format: biochemical; settings: L-Ser constant at 30 mM
T2 sequence (Q9GZT4 1-340): T1 sequence (Q9GZT4 1-340)

[6] = read-out: IC50(H/D-exchange), L-Ser 30 mM
[7] = read-out: IC50(β-elimination), positive controls

## N[C@H](C(=O)O)[C@@H](O)C(=O)O [L-EHA, L-erythro-β-hydroxy-aspartate]
[1]; literature, most potent inhibitors yet identified
  Ki: ~30 µM

## NC(=O)C1=CN([C@@H]2O[C@H](COP(=O)(O)O)[C@@H](O)[C@H]2O)C=CC1 [NMNH, nicotinamide mononucleotide, reduced form]
[1]; ref Mozzarelli and co-workers
  mode of inhibition with respect to substrate: non-competitive inhibition

## O=C(O)CP(=O)(O)O [compound 1, phosphonoacetate, reference compound]
[2]; [6]
  IC50: 89 ± 35 µM
[2]; [7]
  IC50: 39000 ± 2000 µM

## CCOP(=O)(CC(=O)O)OCC [compound 2, diethyl phosphonate acetate, reference compound]
[2]; read-out: IC50(H/D-exchange), positive controls
  IC50: 95000 ± 10000 µM
[2]; [7]
  IC50: 96000 ± 19000 µM

## O=C(O)C(Cl)(Cl)C(=O)O [dichloromalonate]
[1]
  Ki: ~20 µM

## O=C(O)CC(=O)O [malonate]
[1]; ref 33a
  Ki: 20 to 120 µM

## N-H indolo-chroman-2,4-dione [compound 10]
[3]; read-out: Ki (L-SOS elim), β-elimination of L-serine-O-sulfate
  Ki: 12 ± 4 µM
[3]; read-out: Ki (L-Ser elim), β-elimination of L-Ser
  Ki: 44 ± 6 µM
[3]; steady state kinetics
  mode of inhibition vs. substrate: non-competitive inhibition
[4]
  relative solubility: more soluble than the N-alkyl congeners
[2]; 1 mM
  inhibition in the NMR screen: complete inhibition
[2]; NMR assay
  Hill coefficient of dose-response curve: ~ 2
[2]; [6]
  IC50: 45 ± 6 µM
[2]; read-out: IC50(β-elimination), L-Ser 30 mM
  IC50: 36 ± 10 µM
[5]
  mode of inhibition vs. ATP: competing with ATP for the allosteric site
